{"source": "patent US20210259954A1", "about": "“CILIA-TARGETING NANOPARTICLES” (Chapman University, priority 2019, published 2021)", "key": {"p-ERK": {"test_system": "p-ERK", "test": "Immunoblotting of phosphorylated ERK", "format": "cell-based", "description": "Immunoblotting. […] Samples were kept on ice during sonication to prevent overheating. Samples were then centrifuged at 15,000 rpm for 20 min, and the supernatants were collected and subjected to protein quantification. The PAGE (polyacrylamide gel electrophoresis) on 6-10% SDS gels was performed followed by semi-dry transfer to PVDF membranes using a Bio-Rad Trans-Blot Turbo Transfer System and detection using antibodies against t-ERK (1:1,000), p-ERK (1:1,000), NOS (1:200), and GAPDH (1:2,000) (Cell Signaling Technology). Blots were scanned with both calorimetry to image molecular markers and chemiluminescence to capture the protein signal intensity using a Bio-Rad imager."}, "primary cilia [1]": {"test_system": "primary cilia", "test": "Ca2+ and NO imaging under fluid shear stress (Example 1)", "format": "cell-based", "details": "fluid shear 0.5 dyn/cm^2, vs corresponding controls", "description": "Ca^2+ and NO Imaging. For monolayer cell populations, intracellular measurements were obtained. […] After washed to remove excess Fura-2 AM, cytosolic Ca^2+ images were captured every second by recording Ca^2+-bound Fura-2 AM excitation fluorescence at 340/380 nm and emission at 510 nm. For intracellular nitric oxide (NO) measurements, the cells were incubated for 30 minutes at 37° C. with 20 μM DAF-FM (Cayman Chemicals). NO was then measured every second at the excitation and emission wavelengths of 495 and 515 nm, respectively. The cells were placed in PBS during the experiments and observed with a Nikon Eclipse Ti microscope. Fluid shear stress was then applied to cells through InsTech P720 peristaltic pumps with an inlet and outlet setup. The fluid was perfused through cell monolayers at a sub-minimal shear stress of 0.5 dyn/cm^2.\nIn single-cell studies, cells were grown on 2% Formvar® and transfected with the Ca^2+ fluorescence reporter 5HT6-mCherry-G-GECO1.0 (Addgene) using the JetPrime transfection reagent (Polyplus transfection). The shear stress ranged from 0.01-1.0 dyn/cm^2 and was accurately measured and controlled at all times. […] For these experiments, none of the CT-NPs contained AF594 dye to avoid interference with the mCherry signal. Confocal laser scanning microscopy in fast-scan mode was used to avoid potential excessive photo bleaching. […]"}, "[2]": {"test_system": "Tie2Cre⋅Pkd2^flox/flox mice", "test": "Endothelia-specific Pkd2 knockout hypertensive mouse model, 8-week treatment (Example 1)", "format": "in vivo", "description": "One-week-old Tie2Cre⋅Pkd2^WT/WT (with cre activation; control group) or Tie2Cre⋅Pkd2^flox/flox (without cre activation; control group), and Tie2Cre⋅Pkd2^flox/flox (with cre activation; experimental group) mice were injected intra-peritoneally with 5 μg/μL tamoxifen every day for five consecutive days. […] The overall process for the preparation of the final nano-formulation for the animal studies included the following steps. The lyophilized antibody conjugated and drug-loaded CT-DAu-NPs or CT-PLGA-NP powders were first brought to the room temperature from a storage at −50° C. […] The formulations were mixed by vortex for 2 minutes followed by filtration of 0.2 μm. […] The mice were treated every 72 hours with different NPs for 8 weeks. Blood pressure from four-week-old mice was taken with the non-invasive tail-cuff method using the CODA system (Kent Scientific). Blood pressure was measured twice daily for the duration of the study after the initial three days of acclimating each mouse to the cuff. At the end of the 12 weeks of treatment, the hematology parameters, including the blood urea nitrogen (BUN) and plasma nitrate/nitrite measurements, were examined. BUN assays were conducted using a calorimetric kit (Arbor Assays). Plasma nitrate/nitrite concentrations were quantified using a nitrate/nitrite assay kit (Cayman). All steps were followed according to the manufacturer's instructions. […] Then, the tissues were dehydrated using buffered ethanol, and xylene. Finally, the tissues were embedded in wax, sectioned (4 μm, Microtome, HM-3555, Thermo Scientific) and were subsequently stained with standard hematoxylin and eosin (H&E). The pathology slices were observed and imaged using a KEYENCE-BZ-X710 microscope. Mouse heart sections were stained with Masson's Trichrome to detect fibrosis using a Masson's Trichrome Stain Kit (Polysciences, Inc.)."}, "Pkd2 zebrafish": {"test_system": "Pkd2 zebrafish", "test": "Pkd2 morphant zebrafish ciliopathy model (Example 1)", "format": "in vivo", "description": "Animal Studies. All animal procedures were performed according to the University of California Irvine or Chapman University Animal Care and Use Committee Guidelines. To eliminate biases and subjective analyses, all animal studies were performed by double-blinded operators. Wild-type zebrafish AB strains were obtained from the Zebrafish International Resource Center. Embryos were injected with 1 mM morpholino oligos (GeneTools) at the 1-2 cell stage and cultured at 28.5° C. in sterile egg water. The following morpholino sequences were used: control scrambled MO: 5′-CCTCTTACCTCAGTTACAATTTATA-3′ (SEQ ID NO:1), Pkd2: 5′-AGGACGAACGCGACTGGGCTCATC-3′ (SEQ ID NO:2). The cardiac function was assessed by placing zebrafish on their dorsal axis to examine the relative locations of the ventricle and bulbus arteriosus, blood circulation and the heartbeat. Measurements of blood flow characteristics and heart parameters were performed using a Nikon Eclipse Ti microscope. NIS-Elements High Content AR 4.30.02 (Nikon) was used for the live tracking of the speed and acceleration of a single blood cell."}, "primary cilia [3]": {"test_system": "primary cilia", "test": "In vitro cilia length, immunocytochemistry (Example 2)", "format": "cell-based, porcine", "details": "16 h of treatment", "description": "Immunocytochemistry and confocal microscopy. For the in vitro cilia length measurements, cells were grown on the Formvar® polymer, as mentioned above. […] Fenoldopam-alone was also used as another control. […] An antibody against acetylated-α-tubulin (1:10,000 dilution, Sigma-Aldrich) and the secondary antibodies were also diluted in 10% FBS to decrease the background florescence; a FITC-conjugated secondary antibody (1:1000; Pierce) was used. Cells were then washed three times for 5 minutes each with cacodylate buffer and sealed with mounting media containing DAPI (Vector Laboratories). […] Images were processed using NIS-Elements High Content AR 4.30.02 (Nikon). Automated image acquisition (ND acquisition) was conducted under the same ×60 magnification (selected area capturing option) field and Z-stack (0.1 μm slices) settings to create a 3D video. All imaging and video acquisition times and the microscope stage were automatically controlled (XY, XZ and YZ) by an automated perfect focusing system (PFS). The in vivo cilia length measurements and NP localizations in the zebrafish and mouse tissues were performed using the same method."}}}
{"molecule": "Oc1ccc(C2CNCCc3c2cc(O)c(O)c3Cl)cc1", "note": "(stereo not shown) [Fenoldopam, fenoldopam]", "values": [{"measurement": "ERK phosphorylation", "setting": "p-ERK", "result": "increased ERK phosphorylation"}, {"measurement": "NO biosynthesis", "setting": "primary cilia [1]", "result": "significantly increased"}, {"measurement": "cytosolic Ca^2+", "setting": "primary cilia [1]", "result": "significantly increased cytosolic Ca^2+"}, {"measurement": "cilia length in aorta and heart", "setting": "[2]; 24 or 72 hours after treatment", "result": "increased by CTNDDS but not fenoldopam"}, {"measurement": "blood urea nitrogen (BUN)", "setting": "[2]; Pkd2 mice", "result": "could not be corrected"}, {"measurement": "plasma nitrate/nitrite", "setting": "[2]; Pkd2 mice", "result": "could not be corrected"}, {"measurement": "acute blood pressure and heart rate", "setting": "[2]; Pkd2 mice, 10-minute infusion", "result": "significantly decreased blood pressure followed by reflex tachycardia"}, {"measurement": "blood pressure (SBP, MAP)", "setting": "[2]; hypertensive Pkd2 mice, every 3 days for 8 weeks", "result": "no long-term effect"}, {"measurement": "tolerability of bolus injection", "setting": "Pkd2 zebrafish", "result": "tachycardia-associated death"}, {"measurement": "cilia length", "setting": "primary cilia [3]", "result": "increased the cilia length"}]}
